# From patent publication US20130165489A1, “Small Molecule Modulators of HIV-1 Capsid Stability and Methods Thereof” (The Trustees of the University of Pennsylvania, priority 2010, published 2013)
# “Also recorded” adds a separate entry of the source.
# Assays:
# [1] = tested on: HIV-1 92BR030 (subtype B clinical isolate); assay: Anti-HIV efficacy in human PBMCs, isolate 92BR030; format: cell-based
# Protocol: HIV human peripheral blood mononuclear cell (PBMC) assays were performed as described previously (Lanier et al., 2010, Antimicrob. Agents Chemother. 54:2901-09; Ptak et al., 2008, Antimicrob. Agents Chemother. 52:1302-17). Briefly, fresh PBMCs, seronegative for HIV and hepatitis B virus (HBV), were isolated from blood samples of the screened donors (Biological Specialty Corporation, Colmar, Pa.) by using lymphocyte separation medium (LSM; density, 1.078±0.002 g/ml; Cellgro; Mediatech, Inc.) by following the manufacturer's instructions. Cells were stimulated by incubation in 4 μg/mL phytohemagglutinin (PHA; Sigma) for 48 to 72 h. Mitogenic stimulation was maintained by the addition of 20 U/mL recombinant human interleukin-2 (rhIL-2; R&D Systems, Inc.) to the culture medium. PHA-stimulated PBMCs from at least two donors were pooled, diluted in fresh medium, and added to 96-well plates at 5×10^4 cells/well. Cells were infected (final multiplicity of infection [MOI] of ≅0.1) in the presence of 9 different concentrations of test compounds (triplicate wells/concentration) and incubated for 7 days. To determine the level of virus inhibition, cell-free supernatant samples were collected for analysis of reverse transcriptase activity (Buckheit Jr., et al., 1991, AIDS Res. Hum. Retroviruses 7:295-302). Following removal of supernatant samples, compound cytotoxicity was measured by the addition of 3-(4,5-dimethylthiazol-2-yl)-5-(3-carboxymethoxyphenyl)-2-(4-sulfophenyl)-2H-tetrazolium (MTS; CellTiter 96 reagent; Promega) by following the manufacturer's instructions.
# 79:6089-6101; Jagodzinski et al., 2000, J. Clin. Microbiol. 38:1247-49; Michael et al., 1999, J. Clin. Microbiol. 37:2557-63 and Vahey et al., 1999, J. Clin. Microbiol. 37:2533-37); HIV-1 Group M isolate 931N101 (Subtype C, CCR5-tropic) from Dr. Robert Bollinger and the UNAIDS Network for HIV Isolation and Characterization (Gao et al., 1994, AIDS Res. Hum. Retroviruses 10:1359-68); HIV-1 Group M isolate CMUO8 (Subtype E, CXCR4-tropic) from Dr. Kenrad Nelson and the UNAIDS Network for HIV Isolation and Characterization (Gao et al., 1994, AIDS Res. Hum. Retroviruses 10:1359-68); HIV-1 Group M isolate G3 (Subtype G, CCR5-tropic) from Alash'le Abimiku (Abimiku et al., 1994, Aids Res. Hum. Retrovir. 10:1581-83); HIV-1 Group 0 isolate BCF02 (CCR5-tropic) from Sentob Saragosti, Françoise Brun-Vézinet, and François Simon (Loussertajaka et al., 1995, J. Virol. 69:5640-49); and SIV isolate Mac251 from Dr. Ronald Desrosiers (Daniel et al., 1985, Science 228:1201-04).
# [2] = tested on: HIV-1 89BZ167 (subtype B clinical isolate); assay: Anti-HIV efficacy in human PBMCs, isolate 89BZ167; format: cell-based
# Protocol: (§1) HIV human peripheral blood mononuclear cell (PBMC) assays were performed as described previously (Lanier et al., 2010, Antimicrob. Agents Chemother. 54:2901-09; Ptak et al., 2008, Antimicrob. Agents Chemother. 52:1302-17). Briefly, fresh PBMCs, seronegative for HIV and hepatitis B virus (HBV), were isolated from blood samples of the screened donors (Biological Specialty Corporation, Colmar, Pa.) by using lymphocyte separation medium (LSM; density, 1.078±0.002 g/ml; Cellgro; Mediatech, Inc.) by following the manufacturer's instructions. Cells were stimulated by incubation in 4 μg/mL phytohemagglutinin (PHA; Sigma) for 48 to 72 h. Mitogenic stimulation was maintained by the addition of 20 U/mL recombinant human interleukin-2 (rhIL-2; R&D Systems, Inc.) to the culture medium. PHA-stimulated PBMCs from at least two donors were pooled, diluted in fresh medium, and added to 96-well plates at 5×10^4 cells/well. Cells were infected (final multiplicity of infection [MOI] of ≅0.1) in the presence of 9 different concentrations of test compounds (triplicate wells/concentration) and incubated for 7 days. […] Following removal of supernatant samples, compound cytotoxicity was measured by the addition of 3-(4,5-dimethylthiazol-2-yl)-5-(3-carboxymethoxyphenyl)-2-(4-sulfophenyl)-2H-tetrazolium (MTS; CellTiter 96 reagent; Promega) by following the manufacturer's instructions. […]
# [3] = tested on: HIV-1 CMU08 (subtype E clinical isolate); assay: Anti-HIV efficacy in human PBMCs, isolate CMU08; format: cell-based
# Protocol: as §1
# HIV-1NL4-3 CA = HIV-1NL4-3 CA (Human immunodeficiency virus type 1 group M subtype B, UniProt P12493); assay: Isothermal titration calorimetry; format: binding
# Protocol: Isothermal titration calorimetric experiments were performed at 10, 15, and 25° C. using a high-precision ITC200 titration calorimetric system from MicroCal LLC (Northampton, Mass.). All titrations were performed by adding CMPD-E in steps of […]. All solutions contained within the calorimetric cell and injector syringe were prepared in the same buffer, 25 mM Tris-HCl, pH 7.5 with 150 mM NaCl and 3% DMSO. The concentrations of CA and CMPD-E were 35 and 600 μM, respectively. The heat evolved upon injection of CMPD-E was obtained from the integral of the calorimetric signal. The heat associated with the binding reaction was obtained by subtracting the heat of dilution from the heat of reaction. The individual heats were plotted against the molar ratio, and the values for the number of binding sites (n), the enthalpy change (ΔH) and dissociation constant (KD=1/KA) were obtained by nonlinear regression of the data.
# DENV (serotypes 1-4) = assay: CPE assay, Dengue serotypes 1-4; format: cell-based, Dengue virus
# RSV = assay: CPE assay, RSV; format: cell-based, respiratory syncytial virus
# YFV = assay: microbe, parasite or virus in culture; format: cell-based, yellow fever virus
# JEV = assay: CPE assay, JEV; format: cell-based, Japanese encephalitis virus
# H1N1 = assay: CPE assay, influenza H1N1; format: cell-based
# Chikungunya = assay: CPE assay, Chikungunya; format: cell-based
# in vitro = conditions: African green monkey
# [4] = Human immunodeficiency virus 1, PBMC
structure (smiles),measurement,setting,value
"O=C(O)c1ccc(-c2nc(-c3ccccc3)c(-c3ccccc3)[nH]2)cc1 [CMPD-E, 4-(4,5-diphenyl-1H-imidazol-2-yl)benzoic acid]",Antiviral index (TC50/IC50),"[1]; 92BR030, PBMC",>1.46
same,IC50,[1]; [4],68.7 µM
same,inhibition of HIV-1 92BR030 replication in PBMCs,[1]; primary PBMCs,could inhibit
same,IC50,[2]; [4],92.9 µM
same,Antiviral index (TC50/IC50),[2]; PBMC,>1.08
same,IC50,[3]; [4],100 µM
same,Antiviral index (TC50/IC50),[3]; PBMC,>1
same,Kd,HIV-1NL4-3 CA,85 µM
same,change in Gibbs energy,"HIV-1NL4-3 CA; ITC, 25° C.",-6.6 kcal/mol
same,change in enthalpy (ΔH),"HIV-1NL4-3 CA; ITC, 25° C.",-7.3 kcal/mol
same,change in entropy (ΔS),"HIV-1NL4-3 CA; ITC, 25° C.",−5.0 cal/(K×mol)
same,heat capacity change,HIV-1NL4-3 CA; from temperature dependence of the enthalpy,−220 cal/(K×mol)
same,anti-DENV activity,DENV (serotypes 1-4),no inhibitory effects; also recorded: retains none of the anti-DENV activity
same,IC50,DENV (serotypes 1-4); Dengue virus,> 100 µM
same,activity against RSV,"RSV; CPE assay, up to 100 μM",no inhibitory effects
same,IC50,"RSV; human respiratory syncytial virus, RSV, Vero cells",> 100 µM
same,IC50,YFV; Yellow fever virus,> 100 µM
same,effect on yellow fever virus replication,YFV; up to 100 μM,no inhibitory effects
same,effect on Japanese encephalitis virus replication,JEV,no inhibitory effects
same,IC50,JEV; Japanese encephalitis virus,> 100 µM
same,IC50,"H1N1; Influenza A virus, H1N1, CPE assay",> 100 µM
same,effect on influenza H1N1 replication,H1N1; up to 100 μM,no inhibitory effects
same,effect on Chikungunya virus replication,Chikungunya,no inhibitory effects
same,IC50,Chikungunya; Chikungunya virus,> 100 µM
same,CC50,in vitro,> 100 µM
